This is an account of results in patent US6126966A (Sequus Pharmaceuticals, Inc., priority 1999, dated 2000).

The conditions of data set [1]: preclinical studies; Weiss, et al., 1993; cited from earlier work.
Data set [2] relates to squamous cell cancer of the head and neck. To be noted: 80 mg/m^2, 24-hour intravenous infusion; Prestayko, 1991; cited from earlier work.
The test system of data set [3] is tumor models in laboratory animals and human tumors. To be noted: Sur 1983; Steerenberg 1987; cited from earlier work.
The subject of data set [4] is C26 colon tumor. The data set can be described thus: C26 colon tumor model, altered dosing schedule (FIG. 6). The format is in vivo, mice (Balb/c, male). The note with it: IV, days 12, 19, 26, free cisplatin 6 mg/kg, liposomal 6, 12/4/4 or 14/4/4 mg/kg. Here is the method: That is, liposome-entrapped cisplatin was administered with a larger loading dose followed by smaller doses at the second and third weeks.
The C26 colon tumor model was grown in Balb/c, male mice (Simonson Laboratories, Inc., Gilroy, Calif.). Tumors were harvested from donor mice for and minced finely in RPMI media with 10% fetal calf serum (FCS). Tumors were then digested with enzyme mix (10 ml 0.25% protease type IX and 0.25% collagenase type IV in Hank's balanced salt solution (HBSS) and 0.2% ml 0.02% DNase in HBSS) for 30-60 minutes at 37° C. Single cell suspension of tumor cells was washed twice in RPMI media with FCS, concentrated by centrifugation and resuspended in RPMI media with FCS for inoculation. One million tumor cells (0.1 ml) were inoculated in the left flank of 5-6 week old mice.
2. Altered Dosing Schedule. Mice were inoculated with the C26 colon tumor cells according to the above-described procedure. Treatment of the tumor-bearing mice was initiated when the majority of animals had palpable tumors mass of about 100 mm^3.
Cisplatin entrapped in liposomes, prepared as described above, was administered intravenously according to three dosing schedules to tumor-bearing mice. […] The control group (n=5) received saline on each treatment day.

The subject of data set [5] is Lewis lung carcinoma. The data set can be described thus: Lewis lung tumor model (FIG. 7). The class given is in vivo, mice (B6C3-F1, male). The note with it: days 7, 14, 21, free cisplatin 6 mg/kg, liposomal 12 mg/kg. As for the experimental part:
Mice bearing the Lewis lung carcinoma tumor model were treated with cisplatin, administered intravenously and intraperitoneally, or with liposome-entrapped cisplatin, administered similarly. […] A control group of tumor-bearing mice were treated with saline.
The Lewis lung tumor (LL/2, CRL-1642, ATCC, Rockville, Md.) model was grown in G6C3-F1, male mice (Simonson Laboratories, Inc., Gilroy, Calif.). Tumors were harvested from donor mice and processed as above for inoculation of an experiment. One million tumor cells (0.1 ml) were inoculated in the left flank of 5-6 week old, male, B6C3-F1 mice.
Treatment of the tumor-bearing animals was initiated seven days after inoculation, when the majority of animals had palpable tumor masses.
The control group (n=9) received saline on the treatment days (days 7, 14 and 21).

The conditions of data set [6]: Freise, et al., 1982; cited from earlier work.
For data set [7] the following is noted: IV, once per week for 3 weeks, mice; cited from earlier work.

Take `N.N.O=C([O-])C1(C(=O)[O-])CCC1.[Pt+2]` [carboplatin, 1,1-cyclobutane-dicarboxylate-diammineplatinum]: in data set [1], the “antitumor activity relative to cisplatin” value is listed as “equivalent or greater antitumor activity than cisplatin” and the “nephrotoxicity relative to cisplatin” value is given as “less nephrotoxicity”.

In the case of `N.N.[Cl][Pt][Cl]` [cisplatin, cis-diamine-dichloroplatinum (II)], the clinical response result in data set [2] was “favorable response”. The antitumor effectiveness entry in data set [3] is “highly effective in the treatment of tumor models in laboratory animals and in human tumors”. In data set [4], the tumor mass result was “continual increase in tumor mass”. Further, the “antitumor response, IV vs IP administration” value in data set [5] is recorded as “similar”. Also, the “excretion via the kidneys” value in data set [6] is “rapid excretion via the kidneys”. For the same compound, the maximally tolerated dose in data set [7] is 6 mg/kg.
